ChEMBL document CHEMBL1201862, “PubChem BioAssay data set” (2004)
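Dose response: 5 concentrations. Exposure: 48 h. Format: 96-well plates. Endpoint: linear interpolation; highest concentration if not reached. Abbreviation: GI50, concentration required for 50% inhibition of growth.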 Calls of active or inactive are those of the source. Rule as the data show it: active = GI50 up to about 1.1 µM and inactive = higher.

Tests used:
Test in all cases: NCI tumour cell line growth inhibition, 48 h
UACC-257 = tested on: UACC-257
KM12 = tested on: KM12
HT-29 = tested on: HT-29
MDA-N = tested on: MDA-N
IGROV-1 = tested on: IGROV-1
MDA-MB-231 = tested on: MDA-MB-231
SNB-75 = tested on: SNB-75
NCI-H522 = tested on: NCI-H522
NCI/ADR-RES = tested on: NCI/ADR-RES
K562 = tested on: K562
HOP-62 = tested on: HOP-62
RPMI-8226 = tested on: RPMI-8226
Hs-578T = tested on: Hs-578T
EKVX = tested on: EKVX
CCRF-CEM = tested on: CCRF-CEM
COLO 205 = tested on: COLO 205
U-251 = tested on: U-251
HOP-92 = tested on: HOP-92
LOX IMVI = tested on: LOX IMVI
A498 = tested on: A498

Measured: GI50

Cc1c(C(=O)C(=O)c2ccccc2)c(C)c(C(=O)C(=O)c2ccccc2)c(C)c1C(=O)C(=O)c1ccccc1
inactive: UACC-257 > 100 µM | KM12 > 100 µM | HT-29 > 100 µM | MDA-N > 100 µM | IGROV-1 > 100 µM | MDA-MB-231 > 100 µM | SNB-75 > 100 µM | NCI-H522 > 100 µM | NCI/ADR-RES > 100 µM | K562 > 100 µM | HOP-62 > 100 µM | RPMI-8226 > 100 µM | Hs-578T > 100 µM | EKVX > 100 µM | CCRF-CEM > 100 µM | COLO 205 > 100 µM | U-251 > 100 µM

CCn1c(-c2cc(OC)cc(OC)c2)nc2c1C(=O)c1ccccc1C2=O
inactive: UACC-257 > 100 µM | KM12 > 100 µM | HT-29 > 100 µM | MDA-N > 100 µM | IGROV-1 > 100 µM | MDA-MB-231 > 100 µM | SNB-75 22.4 µM | NCI-H522 6.46 µM | NCI/ADR-RES > 100 µM | HOP-92 60 µM | K562 > 100 µM | HOP-62 64.6 µM | RPMI-8226 > 100 µM | Hs-578T 36.5 µM | EKVX > 100 µM | CCRF-CEM > 100 µM | COLO 205 > 100 µM | U-251 > 100 µM

COc1ccc(C(OCC2OC3(COC(c4ccccc4)(c4ccc(OC)cc4)c4ccc(OC)cc4)C(Oc4nc(=O)ccn43)C2O)(c2ccccc2)c2ccc(OC)cc2)cc1 (stereo not drawn)
inactive: UACC-257 > 100 µM | KM12 > 100 µM | HT-29 > 100 µM | MDA-N > 100 µM | IGROV-1 > 100 µM | MDA-MB-231 > 100 µM | NCI-H522 > 100 µM | NCI/ADR-RES > 100 µM | LOX IMVI > 100 µM | K562 > 100 µM | HOP-62 > 100 µM | RPMI-8226 71.1 µM | Hs-578T 10.8 µM | EKVX > 100 µM | CCRF-CEM > 100 µM | COLO 205 > 100 µM | U-251 > 100 µM

COC(=O)c1cc(C)ccc1C1CN=NC12Cc1c(C)cc(C)cc1C2=O (stereo not drawn)
inactive: UACC-257 23.9 µM | KM12 16.5 µM | HT-29 18.3 µM | MDA-N 14.4 µM | IGROV-1 38.2 µM | MDA-MB-231 19.7 µM | SNB-75 23.9 µM | NCI-H522 13.6 µM | NCI/ADR-RES 17.7 µM | HOP-92 13.8 µM | LOX IMVI 15.1 µM | K562 18.4 µM | HOP-62 29 µM | Hs-578T 18.7 µM | EKVX 33.5 µM | CCRF-CEM 26.5 µM | COLO 205 16.7 µM | U-251 27 µM

CCN(CC)CCNC(=O)c1cc2cc(NC(=O)c3cc4cc([N+](=O)[O-])ccc4[nH]3)ccc2[nH]1
inactive: A498 27 µM | UACC-257 29.4 µM | KM12 1.71 µM | HT-29 2.93 µM | MDA-N 52.8 µM | IGROV-1 18.1 µM | MDA-MB-231 3.83 µM | SNB-75 4.89 µM | NCI-H522 3.09 µM | NCI/ADR-RES > 100 µM | HOP-92 11 µM | LOX IMVI 3.86 µM | K562 1.61 µM | HOP-62 > 77.1 µM | RPMI-8226 1.82 µM | EKVX 4.98 µM | COLO 205 5.68 µM | U-251 1.84 µM

CCOC(=O)c1nc2ccccc2nc1Nc1ccc(OC)cc1
inactive: A498 18.6 µM | UACC-257 49.5 µM | KM12 > 100 µM | HT-29 > 100 µM | IGROV-1 50.6 µM | MDA-MB-231 20.6 µM | SNB-75 37.9 µM | NCI-H522 23.8 µM | NCI/ADR-RES 34.8 µM | HOP-92 22.5 µM | LOX IMVI > 100 µM | K562 > 100 µM | HOP-62 15 µM | RPMI-8226 > 100 µM | Hs-578T 41.2 µM | EKVX 47.8 µM | CCRF-CEM > 100 µM | COLO 205 > 100 µM | U-251 35.1 µM

O=C(Cn1c(-c2ccccc2)cc2ccccc21)N1CCCC1
inactive: UACC-257 > 100 µM | HT-29 > 100 µM | MDA-N > 100 µM | IGROV-1 > 100 µM | MDA-MB-231 > 100 µM | SNB-75 > 100 µM | NCI-H522 > 100 µM | NCI/ADR-RES > 100 µM | HOP-92 > 100 µM | LOX IMVI > 100 µM | HOP-62 > 100 µM | Hs-578T > 100 µM | EKVX > 100 µM | COLO 205 > 100 µM

N#C/C(=C/NC(=S)Nc1ccc(S(N)(=O)=O)cc1)C(N)=O
inactive: A498 > 100 µM | UACC-257 > 100 µM | KM12 > 100 µM | HT-29 > 100 µM | MDA-N > 100 µM | IGROV-1 > 100 µM | SNB-75 42.1 µM | NCI-H522 > 100 µM | HOP-92 > 100 µM | HOP-62 > 100 µM | RPMI-8226 > 100 µM | Hs-578T > 100 µM | EKVX > 100 µM | COLO 205 > 100 µM | U-251 > 100 µM

C=C(C)[C@@H]1CC[C@]2(C(=O)O)CC[C@]3(C)[C@H](CCC4[C@@]5(C)CC[C@H](C(=O)/C=C/c6ccc(O)c(O)c6)C(C)(C)[C@@H]5CC[C@]43C)[C@@H]12 (stereo partly drawn)
active: SNB-75 0.0513 µM
inactive: UACC-257 2.81 µM | KM12 2.2 µM | MDA-N 3.89 µM | IGROV-1 4.24 µM | MDA-MB-231 4.36 µM | NCI/ADR-RES 5.46 µM | LOX IMVI 3.34 µM | K562 3.85 µM | HOP-62 2.9 µM | Hs-578T 5.47 µM | EKVX 8.55 µM | CCRF-CEM 2.42 µM | COLO 205 2.84 µM

CCC[C@@H](O)C[C@@H]1CCC[C@H](C[C@@H](O)CC)N1C
active: HOP-92 < 0.01 µM
inactive: A498 > 100 µM | UACC-257 > 100 µM | KM12 > 100 µM | HT-29 > 100 µM | MDA-N > 100 µM | IGROV-1 > 100 µM | MDA-MB-231 > 100 µM | NCI-H522 11.7 µM | NCI/ADR-RES > 100 µM | LOX IMVI 88.1 µM | K562 > 100 µM | HOP-62 > 100 µM | RPMI-8226 > 100 µM | EKVX 29.7 µM | CCRF-CEM > 100 µM | COLO 205 > 100 µM | U-251 > 100 µM

CC(CC(C)[C@H]1CCC2[C@H]3C(CC(=O)[C@@]21C)[C@@]1(C)CCC(O)C[C@H]1C[C@@H]3O)C(=O)O (stereo partly drawn)
inactive: A498 > 100 µM | UACC-257 > 100 µM | KM12 > 100 µM | HT-29 > 100 µM | MDA-N > 100 µM | IGROV-1 > 100 µM | MDA-MB-231 > 100 µM | SNB-75 > 100 µM | NCI-H522 > 100 µM | NCI/ADR-RES > 100 µM | HOP-92 > 100 µM | LOX IMVI > 100 µM | K562 34.7 µM | HOP-62 > 100 µM | RPMI-8226 41.3 µM | EKVX > 100 µM | CCRF-CEM 43.4 µM | COLO 205 > 100 µM | U-251 > 100 µM

O=C1/C(=C/c2ccc(Br)s2)NC(=S)N1c1ccccc1
inactive: A498 51.1 µM | UACC-257 65.6 µM | KM12 > 100 µM | HT-29 > 100 µM | MDA-N > 100 µM | IGROV-1 69.3 µM | MDA-MB-231 34.3 µM | NCI-H522 46.7 µM | HOP-92 25.7 µM | LOX IMVI > 100 µM | K562 56.8 µM | HOP-62 39.1 µM | RPMI-8226 22.5 µM | Hs-578T 38.6 µM | EKVX > 100 µM | CCRF-CEM > 100 µM | COLO 205 84.9 µM | U-251 36.6 µM

c1ccc2c(c1)CCc1c-2n(CCN2CCCCC2)c2ccccc12
inactive: UACC-257 17.2 µM | KM12 14.9 µM | HT-29 8.2 µM | IGROV-1 11.4 µM | MDA-MB-231 13.2 µM | SNB-75 16.4 µM | NCI-H522 13.5 µM | NCI/ADR-RES 16.8 µM | HOP-92 16.4 µM | LOX IMVI 15.1 µM | K562 9.75 µM | HOP-62 15.8 µM | RPMI-8226 10.3 µM | Hs-578T 18.2 µM | EKVX 20.4 µM | CCRF-CEM 15.6 µM | COLO 205 11.8 µM | U-251 14.3 µM

COc1ccc(-n2c(=O)n(-c3ccccc3)c(=O)n2-c2ccc(OC)cc2)cc1
inactive: A498 > 100 µM | UACC-257 > 100 µM | KM12 > 100 µM | MDA-N > 100 µM | IGROV-1 > 100 µM | MDA-MB-231 > 100 µM | SNB-75 > 100 µM | NCI-H522 > 100 µM | NCI/ADR-RES > 100 µM | HOP-92 27.7 µM | LOX IMVI > 100 µM | K562 80.4 µM | HOP-62 > 100 µM | RPMI-8226 > 100 µM | EKVX > 100 µM | CCRF-CEM > 100 µM | COLO 205 > 100 µM | U-251 > 100 µM

COc1ccc(Oc2nc3ccc(C(F)(F)F)cc3nc2-c2ccccc2)cc1
inactive: A498 > 100 µM | UACC-257 > 100 µM | KM12 > 100 µM | HT-29 54.3 µM | IGROV-1 > 100 µM | MDA-MB-231 > 100 µM | NCI-H522 > 100 µM | HOP-92 49.9 µM | LOX IMVI > 100 µM | K562 87.9 µM | HOP-62 > 100 µM | RPMI-8226 7.23 µM | Hs-578T > 100 µM | EKVX > 100 µM | CCRF-CEM 98.9 µM | COLO 205 > 100 µM | U-251 > 100 µM
